Experimental data taken from patent publication US10233205B2, “Magnetic resonance imaging contrast agent capable of detecting hydrogen peroxide and reducing reactive oxygen species” (Auburn University, priority 2015, dated 2019).

Key:
[1] = Competitive binding assay with TPEN for log(K) of ligand binding to Mn(II); type: physicochemical
Experimental: The log(K) was measured via a competitive binding assay between N,N,N′,N′-tetrakis(2-pyridylmethyl)ethylenediamine (TPEN) and the ligand (L). Various amounts of TPEN were added to a solutions of the ligand in MeCN-d3 and D2O.
The log(K) for the complexation of H2qtp1 to Mn(II) was estimated through a titration with the metal-scavenging agent TPEN (N,N,N′,N′-tetrakis(2-pyridinylmethyl)ethylenediamine, log K=10.3). The ratios of free TPEN to free ligand were assessed by ^1H NMR.
Given the known log(K) of 10.3 for TPEN's binding to Mn(II), a log(K) of 10.7 was thereby assigned for the coordination of H2qtp1 to Mn(II). […] The log(K) of 10.7 is nearly identical to the 10.6 value estimated for a related ligand from our laboratory that contains a para-methylphenol group in place of the H2qtp1's quinol.

[2] = Stability in aerobic solution / to pH; type: physicochemical; settings: pH >10
Experimental: Over this time, collected UV/vis spectra (FIGS. 2 & 3) display changes in the region between 200 nm and 300 nm which are consistent with the oxidation of the quinol to a para-quinone. Past 24 h, the solution begins to turn brown, consistent with oxidation of the manganese to Mn(III) and/or Mn(IV). For the spectrophotometric analysis, the Fe(ClO4)2 solution was added to a MeCN solution containing 0.10 mM [Mn(Hptp1)(MeCN)]^2+; the mixture was scanned at 0 min (dashed red), 30 min (dashed pink), and 60 min (dashed blue). […] At 15 h, approximately 11% of the Mn(II) has been displaced by Fe(II) as indicated by data in FIG. 3.
The stability of 3 to air and adventitious metal ions was assessed primarily by UV/vis spectroscopy. […] Complex 3, however, is susceptible to metal exchange. When equimolar amounts of 3 and Fe(ClO4)2 are mixed in MeCN, 80% of the Mn(II) is replaced by Fe(II) by 3 h.

[3] = physchem
Source text: (§2) The speciation in water was more rigorously probed with potentiometric pH titrations. […] The quinolic protons likely deprotonate at higher pH values (pKa˜10), but we were unable to obtain the high pH data necessary to confirm this.
(§3) The data were fit to a model containing the protonated forms of the free ligand and four Mn(II) complexes with the ligand in various protonation states: [Mn(H2qtp2)], [Mn(H3qtp2)]^+, [Mn(H4qtp2)]^2+, and [Mn(H4qtp2)]^3+ (Scheme 4).

[4] = Potentiometric pH titrations, Hyperquad model; settings: for log(β): Hyperquad model, 100 mM KCl, 25° C.
Source text: as §2, §3

[5] = T1-weighted relaxivity (r1) on 3 T clinical MRI scanner; type: physicochemical; settings: no oxidant; 50 mM HEPES pH 7.00, 3 T, 25° C.
Source text: All MRI data were collected at the Auburn University MRI Research Center (Auburn, Ala.) on a Siemens Verio open-bore 3-T MRI clinical scanner. A 15-channel knee coil was used to simultaneously image 12-26 samples. An inversion recovery (IR) sequence was used that featured a non-selective adiabatic inversion pulse followed by a slice-selective gradient recalled echo (GRE) readout after a delay period corresponding to the inversion time (TI).^1-2 The GRE was a saturation readout, such that only one line of k-space was acquired per repetition time (TR). This method was selected to maximize both the signal strength and the accuracy of the T1 estimates. Specific imaging parameters were as follows: TR was set to 4 s, TI was varied from 4.8 to 2500 ms over 37 steps, the echo time (TE) was set to 3.6 ms, the flip angle equaled 90°, averages=1, slice thickness=5 mm, field of view=140×140 mm, matrix=128×128, resulting in a pixel size of 1.1×1.1×5.0 mm. All samples were run in 50 mM solutions of HEPES in water, buffered to pH 7.0 and kept at […]. The manganese content was systematically varied from 0.10 to 1.00 mM. The inverses of the T1 values were plotted versus the concentration of Mn(II) to obtain r1 values. All reported r1 values are averages from the results of two separate series of experiments. Each series of experiments used a different batch of 1.
Image analysis was performed using custom Matlab programs (Mathworks, Natick, Mass.). The initial TI=4.8 ms image served as a baseline to determine circular region of interest (ROI) boundaries for each sample; from these, the mean pixel magnitudes for each ROI were calculated. For each of the 36 subsequent TI images, the same ROI boundaries were applied and the mean pixel magnitude calculations were repeated. This gave consistent ROI spatial definitions and a corresponding time course of magnitudes for each of the samples over all the TI time points. Each sample's complex phase was used to correct the magnitude polarity to produce a complete exponential T1 inversion recovery curve. The Nelder-Mead simplex algorithm^3 was applied to each sample's exponential curve to estimate its corresponding T1 value.
(§1) For the relaxivity measurements, all samples were run in 298 K aqueous solutions containing 50 mM HEPES buffered to pH 7.00, using a 3 T field provided by a clinical MRI scanner. The data were fit to the indicated linear equations; the y-intercepts were within error of 1/T1 measurements associated with two control samples that contained no Mn(II): (A) 10 mM H2O2 in 50 mM HEPES buffer and (B) pure 50 mM HEPES buffer (both 0.46 s^−1).
as §1, with “All” for “For the relaxivity measurements, all”, “s^−1). The oxidation of 1 by 2,3-dichloro-5,6-dicyano-1,4-benzoquinone (DDQ) occurred in CH2Cl2. After the reaction occurred, the 2,3-dichloro-5,6-dicyanoquinol product was removed via filtration, the CH2Cl2 was removed, and the sample was dissolve in HEPES buffer for MRI analysis. The other oxidation reactions occurred entirely in HEPES buffer.” for “s^−1).”
The capability of 3 to serve as a MRI contrast agent was assessed with a 3 T clinical MRI scanner. All samples were run in 298 K aqueous solutions containing 50 mM HEPES buffered to pH 7.00, using a 3 T field provided by a clinical MRI scanner. All samples were prepared under air. The oxidized samples were prepared by directly adding H2O2 to solutions of 3 in aqueous solutions buffered to pH 7.0. The oxidation reactions were allowed to proceed for 30 min at 298 K before the T1 measurements were taken. […]

[6] = conditions identical to those used for 3; cited from earlier work
[7] = Solubility in water; type: physicochemical; settings: pure H2O

Compound: Oc1ccc(O)c(CN(CCN(Cc2ccccn2)Cc2ccccn2)Cc2ccccn2)c1 [Complex H2qtp1, N-(2,5-Dihydroxybenzyl)-N,N′,N′-tris(2-pyridinylmethyl)-1,2-ethanediamine]
- equilibrium constant for [Mn(L)(MeCN)]^2+ + TPEN → [Mn(TPEN)]^2+ + L ([1]; in both water and MeCN): 0.4
- log(K) for the coordination of ligand to Mn(II) ([1]; titration with TPEN, 1H NMR, water and MeCN): 10.7

Compound: Oc1ccc(O)c(CN(CCN(Cc2ccccn2)Cc2cc(O)ccc2O)Cc2ccccn2)c1 [Complex H4qtp2, N,N′-Bis(2,5-dihydroxybenzyl)-N,N′-bis(2-pyridinylmethyl)-1,2-ethanediamine]
- stability of ligand to pH [2]: degrades under basic conditions
- pKa ([3]; pKL1 (free ligand pKa)): 4.47
- pKa ([3]; pKL2 (free ligand pKa)): 7.18
- log(β) [4]: 0.00

Compound: Oc1ccc(O)c(CN(CCN(Cc2ccccn2)Cc2cc(O)ccc2O)Cc2ccccn2)c1 [H5qtp2^+]
- log(β) [4]: 7.18 (±0.03)

Compound: Oc1ccc(O)c(CN(CCN(Cc2ccccn2)Cc2cc(O)ccc2O)Cc2ccccn2)c1 [H6qtp2^2+]
- log(β) [4]: 11.65 (±0.05)

Compound: O.O=C([O-])CN(CCN(CC(=O)[O-])CC(=O)[O-])CC(=O)[O-].[Mn+2] [[Mn(EDTA)(H2O)]^2−, reference compound]
- r1 (T1-weighted relaxivity) [5]: 1.73 mM⁻¹ s⁻¹

Compound: O.O.O.O.O.O.[Mn+2] [[Mn(H2O)6]^2+]
- r1, previously found [6]: about 5.3 mM^−1s^−1

Compound: Oc1ccc2c(c1)CN(Cc1ccccn1)CCN(Cc1ccccn1)Cc1cc(O)ccc1[O][Mn][O]2 [[Mn(H2qtp2)]]
- log(β) [4]: −7.19 (±0.01)
- percent formation of Mn(II) species ([4]; pH 7.0): 40.3%
- percent formation of Mn(II) species ([4]; pH 7.4): 66.2%

Compound: cis-Dibromo(N,N′-bis(2,5-benzoquinone)-N,N′-bis(2-pyridinylmethyl)-1,2-ethanediamine)manganese(II) [Complex 4]
- solubility in water [7]: poor and poor solubility
